Source: patent US10703748B2, “Diazanaphthalen-3-yl carboxamides and preparation and use thereof” (Samumed, LLC, priority 2017, dated 2020)

Experiments:
IL-6 = IL-6 inhibition in LPS-stimulated human peripheral blood mononuclear cells (HTRF); conditions: Homo sapiens, PBMC; for EC50: 22 h; for inhibition at 10 µM: read-out: percentage in parentheses after EC50 >10
Method: Each compound was dissolved in DMSO (Catalog # D8418-100 ml, Sigma-Aldrich, St. Louis, Mo.) as a 10 mM stock and used to prepare compound source plates. […] After 22 hour incubation, a mixture of anti-IL6 XL665 and anti-IL-6 Cryptate diluted in reconstitution buffer (Catalog #62IL6PEC, Cisbio Inc., Bedford, Mass.) was added to each well. […] All samples were processed in duplicate. […] EC50 was determined using software generated by Dotmatics Limited (Windhill Bishops Stortford Herts, UK) using the Levenberg-Marquardt 4 parameter fitting procedure with finite different gradients.

[1] = test system: Wnt-responsive Sp5-Luc reporter in SW480 colon carcinoma cells; experiment: Screening assay for Wnt activity (Sp5-Luc reporter gene assay); conditions: Homo sapiens; for EC50: SW480; for inhibition at 10 µM: SW480, read-out: percent inhibition at 10 μM
Method: The screening assay for Wnt activity is described as follows.
SW480 colon carcinoma cells were transduced with a lentiviral vector expressing luciferase with a human Sp5 promoter consisting of a sequence of eight TCF/LEF binding sites. […] These stably transduced SW480 cells were expanded in cell culture and used for all further screening activities. Each compound was dissolved in DMSO as a 10 mM stock and used to prepare compound source plates. Serial dilution (1:3, 10-point dose-response curves starting from 10 μM) and compound transfer was performed using the ECHO 550 (Labcyte, Sunnyvale, Calif.) into 384-well white solid bottom assay plates (Greiner Bio-One) with appropriate DMSO backfill for a final DMSO concentration of 0.1%. […] Following incubation, 15 μl of BriteLite Plus luminescence reagent (Perkin Elmer) was added to each well of the 384-well assay plates. The plates were placed on an orbital shaker for 2 min and then luminescence was quantified using the Envision (Perkin Elmer) plate reader.

DYRK1A kinase = DYRK1A kinase (Homo sapiens, UniProt Q13627); experiment: DYRK1A kinase activity (Ser/Thr 18 peptide Z-lyte FRET assay); assay type: biochemical; conditions: recombinant DYRK1A, 30 μM ATP, one hour at room temperature;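 further: kinase activity read as coumarin/fluorescein emission ratio after development step, with unphosphorylated and phosphorylated peptide forms setting 0% and 100% controls, values from dose-response curves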
[2] = test system: SW480 colon carcinoma cells; experiment: Cell viability assay (CellTiter-Glo); conditions: Homo sapiens; for EC50: SW480, 96 h; for inhibition at 10 µM: SW480, read-out: percent inhibition at 10 μM
Method: Representative compounds were screened using the assay procedure to assess the effect on cell viability as described below.
SW480 colon carcinoma cells were transduced with a lentiviral vector expressing luciferase with a human Sp5 promoter consisting of a sequence of eight TCF/LEF binding sites. […] These stably transduced SW480 cells were expanded in cell culture and used for all further screening activities. Each compound was dissolved in DMSO as a 10 mM stock and used to prepare compound source plates.
For the Cell Viability Assays, the cells were plated at 2,000 cells/well in 384-well plates with a DMEM medium containing 1% fetal bovine serum, and 1% Penicillin-Streptomycin and incubated for four days hours at 37° C. and 5% CO2. Eight replicates of DMSO-treated cells served as controls and cells treated with compound were performed in duplicate.
After incubation, 10 μL of CellTiter-Glo (Promega) was added to each well allowed to incubate for approximately 12 minutes. This reagent “results in cell lysis and generation of a luminescent signal proportional to the amount of ATP present. The amount of ATP is directly proportional to the number of cells present in culture, in agreement with previous reports. The CellTiter-Glo Assay generates a “glow-type” luminescent signal, produced by the luciferase reaction (Promega.com)”.
Dose-response curves were generated and EC50 concentration values were calculated using non-linear regression curve fit in the GraphPad Prism (San Diego, Calif.) or Dotmatics' Studies Software (Bishops Stortford, UK).

[3] = test system: secreted cytokines TNFα, IL-6 and KC-GRO; experiment: Secreted cytokines in Lipopolysaccharide-stimulated BV-2 cells (Table 9 does not say which cytokine); assay type: cell-based, mouse; conditions: Mus musculus, BV-2, 5 h; read-out: EC50
GSK3β kinase = GSK3β kinase (Homo sapiens, UniProt P49841); experiment: GSK3β kinase activity (Ser/Thr 09 peptide Z-lyte FRET assay); assay type: biochemical; conditions: recombinant kinase, 46 μM ATP, one hour at room temperature; read-out: EC50
[4] = test system: α-smooth muscle actin (aSMA) positive LL29 cells; experiment: Inhibition of the fibrotic process: αSMA staining in TGF-β1 treated LL29 fibroblasts from IPF patients; conditions: Homo sapiens, Fibroblast; for EC50: 96 h

Chain of GSK3β kinase (P49841 whole entry): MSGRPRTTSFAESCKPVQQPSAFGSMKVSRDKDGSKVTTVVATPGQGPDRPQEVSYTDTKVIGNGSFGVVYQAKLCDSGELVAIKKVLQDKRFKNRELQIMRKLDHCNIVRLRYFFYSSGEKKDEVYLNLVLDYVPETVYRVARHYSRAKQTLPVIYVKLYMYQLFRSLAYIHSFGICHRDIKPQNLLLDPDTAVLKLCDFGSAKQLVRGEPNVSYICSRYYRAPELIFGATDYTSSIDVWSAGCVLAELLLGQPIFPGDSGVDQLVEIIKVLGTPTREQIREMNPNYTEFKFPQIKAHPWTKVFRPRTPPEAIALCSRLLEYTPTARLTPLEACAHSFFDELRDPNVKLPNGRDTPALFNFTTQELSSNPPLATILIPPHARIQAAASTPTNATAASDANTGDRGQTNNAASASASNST

| Compound | EC50 (IL-6) [nM] | EC50 [1] [nM] | EC50 (DYRK1A kinase) [nM] | EC50 [2] [nM] | EC50 [3] [nM] | EC50 (GSK3β kinase) [nM] | EC50 [4] [nM] | inhibition at 10 µM (IL-6) [%] | inhibition at 10 µM [2] [%] | inhibition at 10 µM [1] [%] | inhibition at 10 µM ([4]; read-out: percentage in parentheses after EC50 >10) [%] |
| --- | --- | --- | --- | --- | --- | --- | --- | --- | --- | --- | --- |
| CN(C)CCNc1cc(C(=O)Nc2cc3nc(-c4cnn(C)c4)ccc3cn2)ccn1 [Compound 164, 2-((2-(Dimethylamino)ethyl)amino)-N-(2-(1-methyl-1H-pyrazol-4-yl)-1,6-naphthyridin-7-yl)isonicotinamide] | > 10000 | 585 | 6 | 2770 | 165 | 4010 | 717 | 17.6 | – | – | – |
| CN(C)Cc1ccc(C(=O)Nc2cc3nc(-c4cnn(C)c4)ccc3cn2)cc1 [Compound 170, 4-((Dimethylamino)methyl)-N-(2-(1-methyl-1H-pyrazol-4-yl)-1,6-naphthyridin-7-yl)benzamide] | 8090 | 396 | 6 | 3370 | 55 | 1870 | 1300 | – | – | – | – |
| CN1CCN(Cc2cccc(C(=O)Nc3cc4nc(-c5cnn(C)c5)ccc4cn3)c2)CC1 [Compound 172, N-(2-(1-Methyl-1H-pyrazol-4-yl)-1,6-naphthyridin-7-yl)-3-((4-methylpiperazin-1-yl)methyl)benzamide] | > 10000 | 445 | 13 | 1010 | 214 | 765 | 393 | 32.7 | – | – | – |
| CN1CCc2ccc(C(=O)Nc3cc4nc(-c5cnn(C)c5)ccc4cn3)cc2C1 [Compound 202, 2-Methyl-N-(2-(1-methyl-1H-pyrazol-4-yl)-1,6-naphthyridin-7-yl)-1,2,3,4-tetrahydroisoquinoline-7-carboxamide] | > 10000 | 686 | 9 | 9310 | 300 | > 10000 | 530 | 5.1 | – | – | – |
| Cn1cc(-c2ccc3cnc(NC(=O)c4ccc5ccoc5c4)cc3n2)cn1 [Compound 209, N-(2-(1-Methyl-1H-pyrazol-4-yl)-1,6-naphthyridin-7-yl)benzofuran-6-carboxamide] | > 10000 | 485 | 5 | 3150 | 864 | > 10000 | 436 | 3.1 | – | – | – |
| Cn1cc(-c2ccc3cnc(NC(=O)c4ccc5nccnc5c4)cc3n2)cn1 [Compound 216, N-(2-(1-Methyl-1H-pyrazol-4-yl)-1,6-naphthyridin-7-yl)quinoxaline-6-carboxamide] | > 10000 | 447 | 7 | 3160 | 378 | 4850 | 598 | 0 | – | – | – |
| Cn1ncc(-c2ccc3cnc(NC(=O)c4ccnc(N5CCOCC5)c4)cc3n2)c1CN1CCOCC1 [Compound 314, N-(2-(1-Methyl-5-(morpholinomethyl)-1H-pyrazol-4-yl)-1,6-naphthyridin-7-yl)-2-morpholinoisonicotinamide] | > 10000 | 368 | 8 | 441 | 138 | 2610 | 989 | 47.6 | – | – | – |
| CC(F)(F)CN1CCC(C(=O)Nc2cc3nc(-c4cnco4)ccc3cn2)CC1 [Compound 540, 1-(2,2-Difluoropropyl)-N-(2-(oxazol-5-yl)-1,6-naphthyridin-7-yl)piperidine-4-carboxamide] | > 10000 | > 10000 | 22 | > 10000 | ≥ 10000 | 644 | > 10000 | 3.9 | 5.3 | 11.8 | 50 |
| O=C(Nc1cc2nc(-c3cnco3)ccc2cn1)c1ccncc1 [Compound 592, N-(2-(Oxazol-5-yl)-1,6-naphthyridin-7-yl)isonicotinamide] | > 10000 | > 10000 | 29 | > 10000 | 449 | > 10000 | 9 | 25.3 | 11.7 | 5 | – |
| O=C(Nc1cc2nc(-c3cncs3)ccc2cn1)c1ccncc1 [Compound 625, N-(2-(Thiazol-5-yl)-1,6-naphthyridin-7-yl)isonicotinamide] | > 10000 | 964 | 4 | > 10000 | 130 | 8260 | 3010 | 6.5 | 47.8 | – | – |
| Cc1ncc(-c2ccc3cnc(NC(=O)c4ccncc4)cc3n2)s1 [Compound 641, N-(2-(2-Methylthiazol-5-yl)-1,6-naphthyridin-7-yl)isonicotinamide] | > 10000 | 977 | 8 | 1680 | 433 | 2560 | 347 | 16.4 | – | – | – |
| Cc1ncc(-c2ccc3cnc(NC(=O)c4cccnc4)cc3n2)s1 [Compound 642, N-(2-(2-Methylthiazol-5-yl)-1,6-naphthyridin-7-yl)nicotinamide] | > 10000 | 869 | 6 | 1030 | 1300 | 3060 | 988 | 22.4 | – | – | – |
| Cc1ncc(-c2ccc3cnc(NC(=O)c4ccnc(N5CCN(C)CC5)c4)cc3n2)s1 [Compound 643, 2-(4-Methylpiperazin-1-yl)-N-(2-(2-methylthiazol-5-yl)-1,6-naphthyridin-7-yl)isonicotinamide] | 9220 | 688 | 10 | 803 | ≥ 10000 | 8560 | 1430 | – | – | – | – |

Further lines, with some results ahead:

| EC50 (IL-6) [nM] | EC50 [1] [nM] | EC50 (DYRK1A kinase) [nM] | EC50 [2] [nM] | EC50 [3] [nM] | EC50 (GSK3β kinase) [nM] | Compound | EC50 [4] [nM] | inhibition at 10 µM (IL-6) [%] | inhibition at 10 µM [2] [%] | inhibition at 10 µM [1] [%] | inhibition at 10 µM ([4]; read-out: percentage in parentheses after EC50 >10) [%] |
| --- | --- | --- | --- | --- | --- | --- | --- | --- | --- | --- | --- |
| 2070 | 111 | 4 | 353 | 159 | 6000 | Cn1cc(-c2ccc3cnc(NC(=O)c4ccnc(OC5CCNCC5)c4)cc3n2)cn1 [Compound 153, N-(2-(1-Methyl-1H-pyrazol-4-yl)-1,6-naphthyridin-7-yl)-2-(piperidin-4-yloxy)isonicotinamide] | 1100 | – | – | – | – |
| 723 | 76 | 6 | 105 | 207 | 753 | Cn1cc(-c2ccc3cnc(NC(=O)c4cnn(C5CCNCC5)c4)cc3n2)cn1 [Compound 228, N-(2-(1-Methyl-1H-pyrazol-4-yl)-1,6-naphthyridin-7-yl)-1-(piperidin-4-yl)-1H-pyrazole-4-carboxamide] | 376 | – | – | – | – |
| 859 | 90 | 11 | 122 | 62 | 2900 | CN1CCC(n2cc(C(=O)Nc3cc4nc(-c5cnn(C)c5)ccc4cn3)cn2)CC1 [Compound 229, N-(2-(1-Methyl-1H-pyrazol-4-yl)-1,6-naphthyridin-7-yl)-1-(1-methylpiperidin-4-yl)-1H-pyrazole-4-carboxamide] | 318 | – | – | – | – |
| 1890 | 124 | 4 | 229 | 26 | 2250 | CC(C)OC(=O)N1CCC(n2cc(C(=O)Nc3cc4nc(-c5cnn(C)c5)ccc4cn3)cn2)CC1 [Compound 234, Isopropyl 4-(4-((2-(1-methyl-1H-pyrazol-4-yl)-1,6-naphthyridin-7-yl)carbamoyl)-1H-pyrazol-1-yl)piperidine-1-carboxylate] | 329 | – | – | – | – |
| 7960 | 3420 | 19 | 1510 | 1700 | 665 | CN(C)C1CCN(c2cc(C(=O)Nc3cc4nc(-c5cn(C)nn5)ccc4cn3)ccn2)CC1 [Compound 376, 2-(4-(Dimethylamino)piperidin-1-yl)-N-(2-(1-methyl-1H-1,2,3-triazol-4-yl)-1,6-naphthyridin-7-yl)isonicotinamide] | 3480 | – | – | – | – |
| 2080 | 1600 | 11 | 1340 | 734 | 359 | CN1CCCN(c2cc(C(=O)Nc3cc4nc(-c5cn(C)nn5)ccc4cn3)ccn2)CC1 [Compound 379, 2-(4-Methyl-1,4-diazepan-1-yl)-N-(2-(1-methyl-1H-1,2,3-triazol-4-yl)-1,6-naphthyridin-7-yl)isonicotinamide] | 2140 | – | – | – | – |
| 5760 | 386 | 31 | > 10000 | 3300 | 49 | CC(C)OCCC(=O)Nc1cc2nc(-c3cncn3C)ccc2cn1 [Compound 416, 3-Isopropoxy-N-(2-(1-methyl-1H-imidazol-5-yl)-1,6-naphthyridin-7-yl) propanamide] | 355 | – | 52.1 | – | – |
| 3080 | 750 | 3 | 694 | 8800 | 2930 | O=C(Nc1cc2nc(-c3cncs3)ccc2cn1)c1ccc(OC2CCNCC2)cc1 [Compound 624, 4-(Piperidin-4-yloxy)-N-(2-(thiazol-5-yl)-1,6-naphthyridin-7-yl)benzamide] | 491 | – | – | – | – |
